In patent US20130040978A1 (priority 2010, published 2013) one finds IC50 data, which are given here for 27 compounds.

Structures can show the parent of a compound that is named as a salt.

T1 sequence (P35346 whole entry): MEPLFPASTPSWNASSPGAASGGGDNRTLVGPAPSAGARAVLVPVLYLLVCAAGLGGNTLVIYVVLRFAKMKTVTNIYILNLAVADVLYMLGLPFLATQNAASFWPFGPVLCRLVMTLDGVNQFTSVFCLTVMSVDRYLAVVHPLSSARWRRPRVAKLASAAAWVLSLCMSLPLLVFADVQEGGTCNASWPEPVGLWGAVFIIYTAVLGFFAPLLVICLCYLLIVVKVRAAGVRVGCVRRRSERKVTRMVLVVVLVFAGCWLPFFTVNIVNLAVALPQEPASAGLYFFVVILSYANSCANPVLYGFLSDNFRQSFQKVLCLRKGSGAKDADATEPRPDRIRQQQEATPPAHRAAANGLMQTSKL

The first test has as its target T1, SSTR5 (Homo sapiens, UniProt P35346). The experiment in a line: Functional assay of inhibition of SSTR5 mediated cyclic AMP production in SSTR5 expressing CHO cells. In kind it is cell-based, human. The following applies: forskolin (FSK) plus SS-28, read-out: cAMP IC50.
The IC50 is the concentration at which inhibition is half-maximal. As for `CC(C)(C)n1cc(CN2CCC3(CC2)CC(c2ccc(C(=O)O)cn2)=NO3)c(-c2ccc(F)c(Cl)c2)n1` [Example 27, 6-(8-{(1-tert-Butyl-3-(3-chloro-4-fluorophenyl)-1H-pyrazol-4-yl]methyl}-1-oxa-2,8-diazaspiro[4.5]dec-2-en-3-yl)pyridine-3-carboxylic acid], the IC50 is 8.8 nM.

As for `CC(C)n1cc(CN2CCC3(CC2)CC(c2ccc(C(=O)O)cc2)=NO3)c2c(C3CC3)cccc21` [Example 47, 4-(8-{[4-(Cyclopropyl)-1-(propan-2-yl)-1H-indol-3-yl]methyl}-1-oxa-2,8-diazaspiro[4.5]dec-2-en-3-yl)benzoic acid, TFA salt], the IC50 was found to be 0.28 nM.

For the compound `O=C(O)c1ccc(C2=NOC3(CCN(Cc4cc(Cl)cc(C5CC5)c4)CC3)C2)cc1` [Example 85, 4-[8-(3-Chloro-5-cyclopropylbenzyl)-1-oxa-2,8-diazaspiro[4.5]dec-2-en-3-yl]benzoic acid, TFA salt], the 50% inhibitory concentration (IC50) came out at 2.25 nM.

In the case of `CC1(C)CCOc2c(Cl)cc(CN3CCC4(CC3)CC(c3ccc(C(=O)O)cc3)=NO4)cc21` [Example 87, 4-{8-[(8-Chloro-4,4-dimethyl-3,4-dihydro-2H-chromen-6-yl)methyl]-1-oxa-2,8-diazaspiro[4.5]dec-2-en-3-yl}benzoic acid trifluoroacetate], the IC50 worked out at 1.5 nM.

For the compound `CC(C)n1cc(CN2CCC3(CC2)CC(c2ccc(C(=O)O)cc2)=NO3)c2c(-c3ccc(F)cc3)ccnc21` [Example 43, 4-(8-{[4-(4-Fluorophenyl)-1-(propan-2-yl)-1H-pyrrolo[2,3-b]pyridin-3-yl]methyl}-1-oxa-2,8-diazaspiro[4.5]dec-2-en-3-yl)benzoic acid, TFA salt], the IC50 was found to be 2.5 nM.

With `CCOc1cc(CN2CCC3(CC2)CC(c2ccc(C(=O)O)cc2)=NO3)ccc1-c1nccs1` [Example 18, 4-{8-[3-Ethoxy-4-(1,3-thiazol-2-yl)benzyl]-1-oxa-2,8-diazaspiro[4.5]dec-2-en-3-yl}benzoic acid], the IC50 worked out at 11 nM.

On to `CCOc1cc(CN2CCC3(CC2)CC(c2ccc(C(=O)O)cn2)=NO3)c(-c2ccc(F)c(F)c2F)cc1C` [Example 29, 6-{8-[(4-Ethoxy-2′,3′,4′-trifluoro-5-methylbiphenyl-2-yl)methyl]-1-oxa-2,8-diazaspiro[4.5]dec-2-en-3-yl}pyridine-3-carboxylic acid], for which the IC50 turned out to be 5.6 nM.

On to `CC1(C)CCS(=O)(=O)c2c(Cl)cc(CN3CCC4(CC3)CC(c3ccc(C(=O)O)cc3)=NO4)cc21` [Example 99, 4-{8-[(8-Chloro-4,4-dimethyl-1,1-dioxido-3,4-dihydro-2H-thiochromen-6-yl)methyl]-1-oxa-2,8-diazaspiro[4.5]dec-2-en-3-yl}benzoic acid, TFA salt], for which the IC50 turned out to be 472 nM.

Take “4-{8-[(4,4-Dimethyl-3,4-dihydro-2-H-chromen-6-yl)methyl]-1-oxa-2,8-diazaspiro[4.5]dec-2-en-3-yl}benzoic acid, TFA salt [Example 2]”: the IC50 turned out to be 5.2 nM.

Take `O=C(O)c1ccc(C2=NOC3(CCN(Cc4ccc(Cl)c(Br)c4)CC3)C2)cc1` [Example 70, 4-[8-(3-Bromo-4-chlorobenzyl)-1-oxa-2,8-diazaspiro[4.5]dec-2-en-3-yl]benzoic acid]: the IC50 turned out to be 26.5 nM.

Turning to `Cc1cc(-c2cccnc2)c(CN2CCC3(CC2)CC(c2ccc(C(=O)O)cc2)=NO3)cc1C(F)(F)F` [Example 68], the half-inhibitory concentration (IC50) worked out at 13.2 nM.

As for `O=C(O)c1ccc(C2=NOC3(CCN(Cc4cn(C5CC5)c5ccc(C6CC6)cc45)CC3)C2)cc1` [Example 49, 4-(8-{[1,5-(Dicyclopropyl)-1H-indol-3-yl]methyl}-1-oxa-2,8-diazaspiro[4.5]dec-2-en-3-yl)benzoic acid, TFA salt], the IC50 came to 2.5 nM.

For the compound `CCOc1cc(CN2CCC3(CC2)CC(c2ccc(C(=O)O)cc2)=NO3)ccc1Cl` [Example 12, 4-[8-(4-Chloro-3-ethoxybenzyl)-1-oxa-2,8-diazaspiro[4.5]dec-2-en-3-yl]benzoic acid], the IC50 turned out to be 1.3 nM.

Turning to `CC(C)n1cc(CN2CCC3(CC2)CC(c2ccc(C(=O)O)cc2)=NO3)c2cccc(C3CC3)c21` [Example 48, 4-(8-{[7-(Cyclopropyl)-1-(propan-2-yl)-1H-indol-3-yl]methyl}-1-oxa-2,8-diazaspiro[4.5]dec-2-en-3-yl)benzoic acid, TFA salt], the IC50 was found to be 3.36 nM.

For the compound `CC1(C)CC2(CC2)c2cc(CN3CCC4(CC3)CC(c3ccc(C(=O)O)cc3)=NO4)ccc2O1` [Example 95, 4-{8-[(2,2-Dimethyl-2,3-dihydrospiro[chromene-4,1′-cyclopropan]-6-yl)methyl]-1-oxa-2,8-diazaspiro[4.5]dec-2-en-3-yl}benzoic acid, TFA salt], the IC50 turned out to be 18.7 nM.

With `Cc1cc(CN2CCC3(CC2)CC(c2ccc(C(=O)O)cc2)=NO3)cc2c1OC(C)(C)CC2` [Example 91, 4-{8-[(2,2,8-Trimethyl-3,4-dihydro-2H-chromen-6-yl)methyl]-1-oxa-2,8-diazaspiro[4.5]dec-2-en-3-yl}benzoic acid, TFA salt], the IC50 worked out at 72.7 nM.

For the compound `CC(C)n1cc(CN2CCC3(CC2)CC(c2ccc(C(=O)O)cc2)=NO3)c2c(-c3ccc(F)cc3)cccc21` [Example 39, 4-(8-{[4-(4-Fluorophenyl)-1-(propan-2-yl)-1H-indol-3-yl]methyl}-1-oxa-2,8-diazaspiro[4.5]dec-2-en-3-yl)benzoic acid, TFA salt], the IC50 was 0.18 nM.

In the case of `CC1(C)CCSc2c(C3CC3)cc(CN3CCC4(CC3)CC(c3ccc(C(=O)O)cc3)=NO4)cc21` [Example 98, 4-{8-[(8-Cyclopropyl-4,4-dimethyl-3,4-dihydro-2H-thiochromen-6-yl)methyl]-1-oxa-2,8-diazaspiro[4.5]dec-2-en-3-yl}benzoic acid, TFA salt], the IC50 is 12.6 nM.

For `CC(C)n1cc(CN2CCC3(CC2)CC(c2ccc(C(=O)O)cc2)=NO3)c2cc(F)ccc21` [Example 51, 4-(8-{[5-Fluoro-1-(propan-2-yl)-1H-indol-3-yl]methyl}-1-oxa-2,8-diazaspiro[4.5]dec-2-en-3-yl)benzoic acid, TFA salt], the IC50 came to 8.32 nM.

With `Cc1cccc2c(CN3CCC4(CC3)CC(c3ccc(C(=O)O)cc3)=NO4)cn(C(C)C)c12` [Example 44, 4-(8-{[7-Methyl-1-(propan-2-yl)-1H-indol-3-yl]methyl}-1-oxa-2,8-diazaspiro[4.5]dec-2-en-3-yl)benzoic acid, TFA salt], the IC50 amounted to 14.4 nM.

For the compound `Cc1cccc2c(CN3CCC4(CC3)CC(c3ccc(C(=O)O)cc3)=NO4)cn(C3CC3)c12` [Example 45, 4-(8-{[7-Methyl-1-(cyclopropyl)-1H-indol-3-yl]methyl}-1-oxa-2,8-diazaspiro[4.5]dec-2-en-3-yl)benzoic acid, TFA salt], the IC50 came out at 9.15 nM.

With `CC(C)n1cc(CN2CCC3(CC2)CC(c2ccc(C(=O)O)cc2)=NO3)c2c(F)c(F)c(F)c(F)c21` [Example 46, 4-(8-{[1-(propan-2-yl)-4,5,6,7-(tetrafluoro)-1H-indol-3-yl]methyl}-1-oxa-2,8-diazaspiro[4.5]dec-2-en-3-yl)benzoic acid, TFA salt], the IC50 stood at 12.1 nM.

Consider `CC1(C)CC2(CC2)c2cc(CN3CCC4(CC3)CC(c3ccc(C(=O)O)cc3)=NO4)cc(C3CC3)c2O1` [Example 97, 4-{8-[(8-Cyclopropyl-2,2-dimethyl-2,3-dihydrospiro[chromene-4,1′-cyclopropan]-6-yl)methyl]-1-oxa-2,8-diazaspiro[4.5]dec-2-en-3-yl}benzoic acid, TFA salt], for which the IC50 was 4.05 nM.

Take `CC(C)n1cc(CN2CCC3(CC2)CC(c2ccc(C(=O)O)cc2)=NO3)c2c(-c3cc(F)c(F)cc3F)cccc21` [Example 41, 4-(8-{[4-(2,4,5-Trifluorophenyl)-1-(propan-2-yl)-1H-indol-3-yl]methyl}-1-oxa-2,8-diazaspiro[4.5]dec-2-en-3-yl)benzoic acid, TFA salt]: the IC50 was found to be 0.3 nM.

Turning to `CC(C)n1cc(CN2CCC3(CC2)CC(c2ccc(C(=O)O)cc2)=NO3)c2c(-c3ccc(F)nc3)cccc21` [Example 40, 4-(8-{[4-(6-Fluoropyridin-3-yl)-1-(propan-2-yl)-1H-indol-3-yl]methyl}-1-oxa-2,8-diazaspiro[4.5]dec-2-en-3-yl)benzoic acid, TFA salt], the IC50 worked out at 0.4 nM.

In the case of `CC1(C)CC2(CC2)c2cc(CN3CCC4(CC3)CC(c3ccc(C(=O)O)cc3)=NO4)cc(Cl)c2O1` [Example 96, 4-{8-[(8-Chloro-2,2-dimethyl-2,3-dihydrospiro[chromene-4,1′-cyclopropan]-6-yl)methyl]-1-oxa-2,8-diazaspiro[4.5]dec-2-en-3-yl}benzoic acid, TFA salt], the IC50 was determined as 9.4 nM.

On to `O=C(O)c1ccc(C2=NOC3(CCN(Cc4cn(C5CC5)c5c(C6CC6)cccc45)CC3)C2)cc1` [Example 50, 4-(8-{[1,7-(Dicyclopropyl)-1H-indol-3-yl]methyl}-1-oxa-2,8-diazaspiro[4.5]dec-2-en-3-yl)benzoic acid, TFA salt], for which the IC50 was determined as 13.5 nM.

A further test concerns the target T1, SSTR5. Kind of test: SSTR5 receptor-ligand binding assay, CHO-K1 cell membranes, 125I-SRIF radioligand. More on the design: expressed in transfected cells. The conditions noted are these: Table 4, read-out: Bnd IC50. The method, then:
The receptor-ligand binding assays of all 5 subtype of SSTRs were performed with membranes isolated from Chinese hamster ovary (CHO)-K1 cells stably expressing the cloned human somatostatin receptors in 96-well format as previous reported. (Yang et al. PNAS 95:10836-10841, (1998), Birzin et al. Anal. Biochem. 307:159-166, (2002)).
The stable cell lines for SSTR1-SSTR5 were developed by stably transfecting with DNA for all five SSTRs using Lipofectamine. Neomycin-resistant clones were selected and maintained in medium containing 400 μg/mL G418 (Rohrer et al. Science 282:737-740, (1998)). Binding assays were performed using (3-125I-Tyr11)-SRIF-14 or (3-125I-Tyrl 1)-SRIF-28 as the radioligand (used at 0.1 nM) and The Packard Unifilter assay plate. The assay buffer consisted of 50 mM TrisHCl (pH 7.8) with 1 mM EGTA, 5 mM MgCl2, leupeptin (10 μg/mL), pepstatin (10 μg/mL), bacitracin (200 μg/mL), and aprotinin (0.5 μg/mL). CHO-K1 cell membranes, radiolabeled somatostatin, and unlabeled test compounds were resuspended or diluted in this assay buffer. Unlabeled test compounds were examined over a range of concentrations from 0.01 nM to 10,000 nM. The Ki values for compounds were determined as described by Cheng and Prusoff Biochem Pharmacol. 22:3099-3108 (1973).
Take `CC(C)(C)n1cc(CN2CCC3(CC2)CC(c2ccc(C(=O)O)cn2)=NO3)c(-c2ccc(F)c(Cl)c2)n1` [Example 27, 6-(8-{(1-tert-Butyl-3-(3-chloro-4-fluorophenyl)-1H-pyrazol-4-yl]methyl}-1-oxa-2,8-diazaspiro[4.5]dec-2-en-3-yl)pyridine-3-carboxylic acid]: the IC50 is 10 nM.

As to `CCOc1cc(CN2CCC3(CC2)CC(c2ccc(C(=O)O)cc2)=NO3)ccc1-c1nccs1` [Example 18, 4-{8-[3-Ethoxy-4-(1,3-thiazol-2-yl)benzyl]-1-oxa-2,8-diazaspiro[4.5]dec-2-en-3-yl}benzoic acid], the IC50 turned out to be 12 nM.

For the compound `CCOc1cc(CN2CCC3(CC2)CC(c2ccc(C(=O)O)cn2)=NO3)c(-c2ccc(F)c(F)c2F)cc1C` [Example 29, 6-{8-[(4-Ethoxy-2′,3′,4′-trifluoro-5-methylbiphenyl-2-yl)methyl]-1-oxa-2,8-diazaspiro[4.5]dec-2-en-3-yl}pyridine-3-carboxylic acid], the IC50 was found to be 0.99 nM.

As for “4-{8-[(4,4-Dimethyl-3,4-dihydro-2-H-chromen-6-yl)methyl]-1-oxa-2,8-diazaspiro[4.5]dec-2-en-3-yl}benzoic acid, TFA salt [Example 2]”, the IC50 worked out at 4.3 nM.

For the compound `CCOc1cc(CN2CCC3(CC2)CC(c2ccc(C(=O)O)cc2)=NO3)ccc1Cl` [Example 12, 4-[8-(4-Chloro-3-ethoxybenzyl)-1-oxa-2,8-diazaspiro[4.5]dec-2-en-3-yl]benzoic acid], the IC50 came out at 7.5 nM.
